Assay results published in patent US20120029016A1, “Indoles Useful in the Treatment of Inflammation” (BIOLIPOX AB, priority 2008, published 2012).

Columns and labels:
[1] = biological target: T1, Recombinant human LTC4 synthase (Homo sapiens, UniProt Q16873); assay: In vitro assay Method B: LTC4 synthase, LTA4 to LTC4, HTRF detection; type: biochemical; conditions: total concentration of title compound 10 μM, read-out: % inh. of LTC4 synthase
T1 construct: made in house; host or cells: Pichia pastoris ('Piccia pastoralis' [sic])
T1 sequence (Q16873 1-150): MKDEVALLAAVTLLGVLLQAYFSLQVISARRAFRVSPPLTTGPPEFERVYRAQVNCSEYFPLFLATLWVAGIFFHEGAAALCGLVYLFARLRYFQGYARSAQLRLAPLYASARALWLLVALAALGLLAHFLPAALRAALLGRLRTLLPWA
Procedure: In the assay, LTC4 synthase catalyses the reaction where the substrate LTA4 is converted to LTC4. Recombinant human LTC4 synthase is expressed in Piccia pastoralis and the purified enzyme is dissolved in 25 mM Tris-buffer pH 7.8 and stored at −20° C. The assay is performed in phosphate buffered saline (PBS) pH 7.4, supplemented with 5 mM glutathione (GSH). The assay is performed at rt in 384-well plates. Analysis of the formed LTC4 is performed using costume made homogenous time-resolved fluorescence (HTRF) detection (Cisbio).
The following is added chronologically to each well: • 1. 50 μL assay buffer, PBS with 5 mM GSH. • 2. 0.5 μL inhibitor in DMSO. • 3. 2 μl LTC4 synthase in PBS. The total protein concentration in this solution is 0.025 mg/ml. Incubation of the plate at rt for 10 min. • 4. 1-1.5 μL LTA4 (final conc. 2.5 μM). Incubation of the plate at rt for 1 min. 10 μL of the incubation mixture is analysed using HTRF detection.

[2] = system: cysteinyl leukotrienes concentration in the peritoneal lavage; assay: Mouse peritoneal inflammation model (zymosan ip), cysteinyl leukotrienes in peritoneal lavage by EIA; type: in vivo, Male BALB/c mice; conditions: 0.5 h, 5 min before zymosan, lavage 30 min after zymosan, read-out: %-inhibition of cysteinyl leukotrienes concentration vs vehicle treated mice; for inhibition in vivo at 3 mg/kg: 3 mg/kg ip; for inhibition in vivo at 10 mg/kg: 10 mg/kg ip
Procedure: The in vivo efficacy of leukotriene biosynthesis inhibitors was assed by using a model of peritoneal inflammation. Male BALB/c mice (weighing 20-25 grams) received an intraperitoneal injection (ip) of 0.5 ml zymosan dissolved in phosphate buffer saline (PBS) (pH 7.5, 1 mg/mL). 5 Minutes before the zymosan injection compounds (1-10 mg/kg) or vehicle were administered ip (10 mL/kg). 30 min after the zymosan injection the mice were anaesthetized and the peritoneal cavity was flushed with 4 mL PBS. The peritoneal lavage was centrifuged at 6000 rcf for 5 minutes and the cysteinyl leukotrienes concentration in the supernatant was determined by EIA. The cysteinyl leukotrienes concentration in the peritoneal lavage from compound treated mice was compared to vehicle treated mice and the % inhibition was calculated.

inhibition at 10 µM [1] | Compound | also measured
95% | CC(C)Oc1ccc(Oc2ccc3c(c2)c(C(=O)O)c(CC(=O)O)n3-c2ccc(OCc3ccccc3Cl)cc2)cc1 [1:3, 2-Carboxymethyl-1-[4-(2-chlorobenzyloxy)phenyl]-5-(4-isopropoxy-phenoxy)indole-3-carboxylic acid] | 
93% | CC(C)Oc1ccc(Oc2ccc3c(c2)c(C(=O)O)c(CC(=O)O)n3-c2ccc(OCc3ccc(Cl)c(Cl)c3)cc2)cc1 [1:4, 2-Carboxymethyl-1-[4-(3,4-dichlorobenzyloxy)phenyl]-5-(4-isopropoxyphenoxy)indole-3-carboxylic acid] | 
95% | CC(C)Oc1ccc(Oc2ccc3c(c2)c(C(=O)O)c(CC(=O)O)n3-c2ccc(OCc3ccc(Cl)cc3)cc2)cc1 [1:6, 2-Carboxymethyl-1-[4-(4-chlorobenzyloxy)phenyl]-5-(4-isopropoxy-phenoxy)indole-3-carboxylic acid] | 
94% | CC(C)Oc1ccc(Oc2ccc3c(c2)c(C(=O)O)c(CC(=O)O)n3-c2ccc(OCc3cccc(Cl)c3)cc2)cc1 [1:7, 2-Carboxymethyl-1-[4-(3-chlorobenzyloxy)phenyl]-5-(4-isopropoxy-phenoxy)indole-3-carboxylic acid] | 
99% | CC(C)Oc1ccc(Oc2ccc3c(c2)c(C(=O)O)c(CC(=O)O)n3-c2ccc(OCc3ccc(Cl)nc3)cc2)cc1 [1:11, 2-Carboxymethyl-1-[4-(6-chloro-3-pyridinylmethoxy)phenyl]-5-(4-isopropoxyphenoxy)indole-3-carboxylic acid] | 
97% | CC(C)Oc1ccc(Oc2ccc3c(c2)c(C(=O)O)c(CC(=O)O)n3-c2ccc(Oc3cccc(Cl)c3)cc2)cc1 [3:2, 2-Carboxymethyl-1-[4-(3-chlorophenoxy)phenyl]-5-(4-isopropoxy-phenoxy)indole-3-carboxylic acid] | 
9% | CC(C)Oc1ccc(Oc2ccc3c(c2)c(C(=O)O)c(CC(=O)O)n3-c2ccc(Oc3ccccc3Cl)cc2)cc1 [3:4, 2-Carboxymethyl-1-[4-(2-chlorophenoxy)phenyl]-5-(4-isopropoxy-phenoxy)indole-3-carboxylic acid] | 
100% | O=C(O)Cc1c(C(=O)O)c2cc(Oc3ccc(OC(F)(F)F)cc3)ccc2n1-c1ccc(OC2CCCC2)cc1 [4:2, 2-Carboxymethyl-1-(4-cyclopentyloxyphenyl)-5-(4-trifluoromethoxyphenoxy)indole-3-carboxylic acid] | 
97% | O=C(O)Cc1c(C(=O)O)c2cc(Oc3ccc(OC4CCCC4)cc3)ccc2n1-c1ccc(OC2CCCC2)cc1 [4:3, 2-Carboxymethyl-5-(4-cyclopentyloxyphenoxy)-1-(4-cyclopentyloxyphenyl)indole-3-carboxylic acid] | 
98% | O=C(O)Cc1c(C(=O)O)c2cc(Oc3ccc(OC4CC4)cc3)ccc2n1-c1ccc(OC2CCCC2)cc1 [4:4, 2-Carboxymethyl-1-(4-cyclopentyloxyphenyl)-5-(4-cyclopropoxyphenoxy)-indole-3-carboxylic acid] | 
95% | CC(C)Oc1ccc(Oc2ccc3c(c2)c(C(=O)O)c(CC(=O)O)n3-c2ccc(OC3CC4CCC3C4)cc2)cc1 (centres unmarked) [5:3, 2-Carboxymethyl-5-(4-isopropoxyphenoxy)-1-[4-(2-norbomanyloxy)-phenyl]indole-3-carboxylic acid] | 
100% | O=C(O)Cc1c(C(=O)O)c2cc(Oc3ccc(OC(F)(F)F)cc3)ccc2n1-c1ccc(NCc2cccnc2)cc1 [6:1, 2-Carboxymethyl-1-[4-(3-pyridinylmethylamino)phenyl]-5-(4-trifluoromethoxyphenoxy)indole-3-carboxylic acid] | 
100% | CCN(c1ccccc1)c1ccc(-n2c(CC(=O)O)c(C(=O)O)c3cc(Oc4ccc(OC(F)(F)F)cc4)ccc32)cc1 [6:3, 2-Carboxymethyl-1-{4-[ethyl(phenyl)amino]phenyl}-5-(4-trifluoromethoxy-phenoxy)indole-3-carboxylic acid] | 
94% | CCN(c1ccc(-n2c(CC(=O)O)c(C(=O)O)c3cc(Oc4ccc(OC(F)(F)F)cc4)ccc32)cc1)c1cccc(C)c1 [6:4, 2-Carboxymethyl-1-{4-[ethyl(m-tolyl)amino]phenyl}-5-(4-trifluoromethoxy-phenoxy)indole-3-carboxylic acid] | 
100% | O=C(O)Cc1c(C(=O)O)c2cc(Oc3ccc(OC(F)(F)F)cc3)ccc2n1-c1ccc(NC2CCCC2)cc1 [6:5, 2-Carboxymethyl-1-(4-cyclopentylaminophenyl)-5-(4-trifluoromethoxy-phenoxy)indole-3-carboxylic acid] | 
97% | O=C(O)Cc1c(C(=O)O)c2cc(Oc3ccc(OC(F)(F)F)cc3)ccc2n1-c1ccc(NCC2CCCCC2)cc1 [6:6, 2-Carboxymethyl-1-(4-cyclohexylmethylaminophenyl)-5-(4-trifluoro-methoxyphenoxy)indole-3-carboxylic acid] | 
98% | CCCCCCCCNc1ccc(-n2c(CC(=O)O)c(C(=O)O)c3cc(Oc4ccc(OC(F)(F)F)cc4)ccc32)cc1 [6:7, 2-Carboxymethyl-1-(4-octylaminophenyl)-5-(4-trifluoromethoxyphenoxy)-indole-3-carboxylic acid] | 
97% | O=C(O)Cc1c(C(=O)O)c2cc(Oc3ccc(OC(F)(F)F)cc3)ccc2n1-c1ccc(Nc2cccc3c2CCCC3)cc1 [6:8, 2-Carboxymethyl-1-[4-(5,6,7,8-tetrahydro-1-naphthylamino)phenyl]-5-(4-trifluoromethoxyphenoxy)indole-3-carboxylic acid] | 
100% | O=C(O)Cc1c(C(=O)O)c2cc(Oc3ccc(OC(F)(F)F)cc3)ccc2n1-c1ccc(NCc2ccccc2)cc1 [6:9, 1-(4-benzylaminophenyl)-2-carboxymethyl-5-(4-trifluoromethoxy-phenoxy)indole-3-carboxylic acid] | 
99% | CC(C)Oc1ccc(Oc2ccc3c(c2)c(C(=O)O)c(CC(=O)O)n3-c2ccc(OCc3ccccc3)cc2)cc1 [Example 1:1, 1-(4-Benzyloxyphenyl)-2-carboxymethyl-5-(4-isopropoxyphenoxy)indole-3-carboxylic acid] | inhibition in vivo at 1 mg/kg ([2]; 1 mg/kg ip): 78%; inhibition in vivo at 3 mg/kg [2]: 92%; inhibition in vivo at 10 mg/kg [2]: 100%
96% | Cc1ccc(COc2ccc(-n3c(CC(=O)O)c(C(=O)O)c4cc(Oc5ccc(OC(C)C)cc5)ccc43)cc2)cc1 [Example 1:2, 2-Carboxymethyl-5-(4-isopropoxyphenoxy)-1-(4-(4-methylbenzyloxy)phenyl)indole-3-carboxylic acid] | 
97% | COc1ccc(COc2ccc(-n3c(CC(=O)O)c(C(=O)O)c4cc(Oc5ccc(OC(C)C)cc5)ccc43)cc2)cc1 [Example 1:5, 2-Carboxymethyl-1-5-(4-isopropoxyphenoxy)-[4-(4-methoxybenzyloxy)-phenyl]indole-3-carboxylic acid] | inhibition in vivo at 10 mg/kg [2]: 92%
98% | CC(C)Oc1ccc(Oc2ccc3c(c2)c(C(=O)O)c(CC(=O)O)n3-c2ccc(OCc3ccccc3C(F)(F)F)cc2)cc1 [Example 1:8, 2-Carboxymethyl-1-5-(4-isopropoxyphenoxy)-[4-(2-trifluoromethyl-benzyloxy)phenyl]indole-3-carboxylic acid] | inhibition in vivo at 10 mg/kg [2]: 96%
98% | CC(C)Oc1ccc(Oc2ccc3c(c2)c(C(=O)O)c(CC(=O)O)n3-c2ccc(OCc3ccccn3)cc2)cc1 [Example 1:9, 2-Carboxymethyl-1-5-(4-isopropoxyphenoxy)-[4-(2-pyridinylmethoxy)-phenyl]indole-3-carboxylic acid] | inhibition in vivo at 3 mg/kg [2]: 97%
97% | CC(C)Oc1ccc(Oc2ccc3c(c2)c(C(=O)O)c(CC(=O)O)n3-c2ccc(OC3CCC(C)(C)CC3)cc2)cc1 [Example 5:1, 2-Carboxymethyl-1-[4-(4,4-dimethylcyclohexyloxy)phenyl]-5-(4-isopropoxyphenoxy)indole-3-carboxylic acid] | 
95% | O=C(O)Cc1c(C(=O)O)c2cc(Oc3ccc(OC(F)(F)F)cc3)ccc2n1-c1ccc(NCc2ccc(Cl)nc2)cc1 [Example 6:2, 2-Carboxymethyl-1-{4-[(6-chloro-3-pyridinylmethyl)amino]phenyl}-5-(4-trifluoromethoxyphenoxy)indole-3-carboxylic acid] | 
